Source: patent US7687079B2, “Methods of treating ileus” (priority 2002, dated 2010)
Entries after “also recorded” stand apart in the source; their conditions may differ.

Columns and labels:
PGE2 = PGE2 release from muscularis extracts (marker of COX-2 activity); format: in vivo, mouse; details: 24 hr
Protocol: Protein and Nitric Oxide Determinations. The small bowel of control and mice subjected to intestinal manipulation was removed under sterile conditions, 4 or 24 hours post-operatively, leaving the colon in situ. The small intestine was transferred to a beaker containing chilled Hanks balanced salt solution (Sigma, St. Louis, Mo.) with 200 U/ml penicillin G and 200 μg/ml streptomycin (HBSS), the lumen flushed, and the tissue transferred to a second beaker of HBSS. The muscularis was harvested as described above for real time RT-PCR. Tissues were maintained under sterile conditions at 3 to 5° C. throughout the harvesting procedure. Isolated muscularis was blotted onto sterile gauze, and the wet weight determined to obtain aliquots of 40 to 60 mg. […]
After the incubation period, the muscle tissue was pelleted, and aliquots of culture medium were frozen in liquid nitrogen and stored at −80° C. The levels of IL-6, IL-1β, PGE2, and IL-10 proteins secreted into the culture medium were determined using commercially available ELISA kits (R&D Systems, Minneapolis, Minn.) according to the manufacturer's instructions. […] Nitrate/nitrate levels were measured 24 hrs postoperatively using commercially available test kit (Oxford Biomedical Research, Oxford, Mich.) and quantified according to the manufacturer's directions. […]

COX-2 mRNA = COX-2 mRNA expression in muscularis of transplanted grafts (real time RT-PCR); format: in vivo, rat; details: CO-treated SITx rats, 4 hours after reperfusion
Protocol: The effects of inhalation of CO on transplant-induced pro-inflammatory and anti-inflammatory gene expression was assessed in muscularis extracts by RT-PCR. Muscularis extemae was collected from normal intestine and transplanted grafts 4 hours postoperatively and snap frozen in liquid nitrogen. This time point falls within the range of maximum inflammatory mediator expression that occurs between 3 and 6 hours following abdominal incision. Total RNA extraction was performed using the guanidium-thiocyanate phenol-chloroform extraction method as described previously (Eskandari et al., Am. J. Clin. Pathol. 75(3):367-370 (1997)). RNA pellets were resuspended in RNA-secure resuspension solution (Ambion Inc., Austin, Tex.), followed by removal of potentially contaminating DNA by treatment with DNase I (DNA-Free Kit, Ambion Inc., Austin, Tex.). Equal aliquots (5 μg) of total RNA from each sample were quantified by spectrophotometry (wavelength […]) and aliquoted at a concentration of 40 ng/μl. Peak mRNA expression was quantified in duplicate by SYBR Green two-step, real-time RT-PCR. […] Real-time PCR data were plotted as the ΔRn, fluorescence signal versus the cycle number. […] Quantification of mRNA expression was normalized to GAPDH and calculated relative to control using the comparative CT method (Schmittgen et al., J. Biochem. Biophys. Methods 46(1-2):69-8 (2000)). […]

circular muscle strip = test: Example 3 circular muscle strip contractions in response to bethanechol after IM; format: in vivo, mouse; details: IM+CO mice (250 and 500 ppm), bethanechol 100 μM, 24 hours
Protocol: Ileus was induced in mice by gentle manipulation of the small intestine. An incision was made to expose the abdominal cavity of the mouse, and bowel manipulation was performed by gentle poking and prodding of the small intestine (see, e.g., Schwarz et al., Gastroenterology 121(6):1354-1357 (2001)). The incision was subsequently closed, and analyses were performed 24 hours later. Mice were exposed to CO by inhalation (250 and 500 ppm) for 1 hour immediately prior to intestinal manipulation and during the entire 24-hour recovery period. Intestinal contractility was assessed in vitro by measuring circular muscle strip contractions in response to bethanechol (0.3-300 μM) and in vivo by determining intestinal transit from the distribution of orally-fed, fluorescein-labeled dextran and calculating geometric center as described in Example 1 above. HO-1 and IL-10 mRNA expression were determined by SYBR green real time RT-PCR from extracts of muscularis extemae, as described in Example 1 above. Release of nitric oxide (NO), a potent inhibitor of smooth muscle contractility, was estimated by measuring serum total nitrite, also described in Example 1 above.

## [C-]#[O+] [CO, carbon monoxide]
PGE2; IM + CO
  IM-induced PGE2 release: no effect
PGE2; control muscularis, inhalation of CO alone
  PGE2 release: significant increases; also recorded: significantly increased
COX-2 mRNA
  reduction of mean relative COX-2 mRNA expression: approximately 50%
Circular muscle strip
  peak contractile force: 1.9±0.5 g/s/mm^2
